Patent US12655116B2, “Substituted isophthalic acid diamides” (Bayer Aktiengesellschaft, priority 2020, dated 2026)

Assays:
[1] = system: ALOMY; assay: Pre-emergence herbicidal action against ALOMY; type: in vivo, Alopecurus myosuroides; settings: 80 g/ha, pre-emergence, scored visually after 3 weeks vs untreated controls (100% = plants have died, 0% = like control plants)
Procedure, shortened: (§1)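 Seeds sown in sandy loam, soil-covered; compound sprayed on soil surface pre-emergence. Application: WP/EC, 600–800 l/ha, 0.2% wetting agent. Readout: visual % damage at 3 weeks.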

[2] = system: VIOTR; assay: Pre-emergence herbicidal action against VIOTR; type: in vivo, Viola tricolor
Procedure, shortened: as §1

[3] = system: ECHCG; assay: Post-emergence herbicidal action against ECHCG; type: in vivo, Echinochloa crus-galli
Procedure, shortened: (§2)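 Percent herbicidal action is rated by eye about 3 weeks after treatment against untreated controls, where 100% means dead plants and 0% means like controls. Plants in sandy loam are sprayed on green parts at the one-leaf stage with aqueous WP or EC preparations at 600 to 800 l/ha plus 0.2% wetting agent.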

[4] = system: ABUTH; assay: Pre-emergence herbicidal action against ABUTH; type: in vivo, Abutilon theophrasti; settings: for Pre-emergence action against ABUTH (herbicidal activity): 80 g/ha, scored visually after 3 weeks vs untreated controls (100% = plants have died, 0% = like control plants)
Procedure, shortened: as §1

[5] = system: AVEFA; assay: Pre-emergence herbicidal action against AVEFA; type: in vivo, Avena fatua; settings: 80 g/ha, pre-emergence
Procedure, shortened: as §1

[6] = system: MATIN; assay: Pre-emergence herbicidal action against MATIN; type: in vivo, Matricaria inodora
Procedure, shortened: as §1

[7] = system: SETVI; assay: Post-emergence herbicidal action against SETVI; type: in vivo, Setaria viridis
Procedure, shortened: as §2

[8] = system: PHBPU; assay: Pre-emergence herbicidal action against PHBPU; type: in vivo, Pharbitis purpurea; settings: dosage 80 g/ha
Procedure, shortened: as §1

[9] = system: POLCO; assay: Post-emergence herbicidal action against POLCO; type: in vivo, Polygonum convolvulus; settings: dosage 20 g/ha
Experimental: Seeds of monocotyledonous and dicotyledonous weed and crop plants are laid out in sandy loam soil in wood-fiber pots, covered with soil and cultivated in a greenhouse under good growth conditions. 2 to 3 weeks after sowing, the test plants are treated at the one-leaf stage. The compounds of the invention, formulated in the form of wettable powders (WP) or as emulsion concentrates (EC), are then sprayed onto the green parts of the plants in the form of an aqueous suspension or emulsion at a water application rate equivalent to 600 to 800 l/ha, with addition of 0.2% wetting agent. After the test plants have been left to stand in the greenhouse under optimal growth conditions for about 3 weeks, the action of the preparations is assessed visually in comparison to untreated controls (herbicidal action in percent (%): 100% activity=the plants have died, 0% activity=like control plants). […] The tables below illustrate, in an illustrative manner, the post-emergence herbicidal action of the compounds of the invention, the herbicidal activity being stated in percent.

[10] = system: AMARE; assay: Pre-emergence herbicidal action against AMARE; type: in vivo, Amaranthus retroflexus
Procedure, shortened: as §1

[11] = system: ECHCG; assay: Pre-emergence herbicidal action against ECHCG; type: in vivo, Echinochloa crus-galli
Procedure, shortened: as §1

[12] = system: SETVI; assay: Pre-emergence herbicidal action against SETVI; type: in vivo, Setaria viridis
Procedure, shortened: as §1

[13] = system: POLCO; assay: Pre-emergence herbicidal action against POLCO; type: in vivo, Polygonum convolvulus
Procedure, shortened: as §1

[14] = system: PHBPU; assay: Post-emergence herbicidal action against PHBPU; type: in vivo, Pharbitis purpurea; settings: dosage 20 g/ha
Procedure, shortened: as §2

[15] = system: ABUTH; assay: Post-emergence herbicidal action against ABUTH; type: in vivo, Abutilon theophrasti; settings: visual assessment about 3 weeks after treatment vs untreated controls
Procedure, shortened: as §2

[16] = system: DIGSA; assay: Pre-emergence herbicidal action against DIGSA; type: in vivo, Digitaria sanguinalis
Procedure, shortened: as §1

[17] = system: VIOTR; assay: Post-emergence herbicidal action against VIOTR; type: in vivo, Viola tricolor
Procedure, shortened: as §2

[18] = system: VERPE; assay: Post-emergence herbicidal action against VERPE; type: in vivo, Veronica persica; settings: 20 g/ha
Procedure, shortened: as §2

[19] = system: VERPE; assay: Pre-emergence herbicidal action against VERPE; type: in vivo, Veronica persica; settings: dosage 80 g/ha
Procedure, shortened: as §1

[20] = system: DIGSA; assay: Post-emergence herbicidal action against DIGSA; type: in vivo, Digitaria sanguinalis
Procedure, shortened: as §2

[21] = system: AMARE; assay: Post-emergence herbicidal action against AMARE; type: in vivo, Amaranthus retroflexus; settings: 20 g/ha, visual assessment about 3 weeks after treatment, 100% = plants have died, 0% = like control plants
Procedure, shortened: as §2

[22] = system: MATIN; assay: Post-emergence herbicidal action against MATIN; type: in vivo, Matricaria inodora
Procedure, shortened: as §2

[23] = 20 g/ha, scored visually after 3 weeks vs untreated controls, 100% = plants have died, 0% = like control plants
[24] = 80 g/ha, scored visually after 3 weeks vs untreated controls (100% = plants have died, 0% = like control plants)

CCn1nnnc1NC(=O)c1ccc(C(F)(F)F)c(C(=O)NCC(F)F)c1C [Example 2-30]
Pre-emergence action against ALOMY (herbicidal activity) [1]: 100%
Pre-emergence action against VIOTR in % ([2]; dosage 20 g/ha): 100%
Pre-emergence action against VIOTR in % ([2]; dosage 80 g/ha): 100%
Post-emergence action against ECHCG in % ([3]; dosage 5 g/ha): 80%
Post-emergence action against ECHCG in % ([3]; dosage 20 g/ha): 80%
Pre-emergence action against ABUTH (herbicidal activity) [4]: 100%
Pre-emergence action against AVEFA in % [5]: 100%
Pre-emergence action against MATIN in % ([6]; dosage 20 g/ha): 100%
Pre-emergence action against MATIN in % ([6]; dosage 80 g/ha): 100%
Post-emergence action against SETVI in % ([7]; dosage 20 g/ha): 80%
Pre-emergence action against PHBPU in % [8]: 80%
Post-emergence action against POLCO in % [9]: 80%
Pre-emergence action against AMARE in % [10, 23]: 100%
Pre-emergence action against AMARE in % [10, 24]: 100%
Pre-emergence action against ECHCG in % ([11]; 80 g/ha): 100%
Pre-emergence action against SETVI in % ([12]; dosage 20 g/ha): 100%
Pre-emergence action against SETVI in % ([12]; dosage 80 g/ha): 100%
Pre-emergence action against POLCO in % ([13]; dosage 20 g/ha): 80%
Pre-emergence action against POLCO in % ([13]; dosage 80 g/ha): 80%
Post-emergence action against PHBPU in % [14]: 90%
Post-emergence action against ABUTH in % ([15]; dosage 5 g/ha): 80%
Post-emergence action against ABUTH in % ([15]; dosage 20 g/ha): 80%
Pre-emergence action against DIGSA in % ([16]; dosage 20 g/ha): 100%
Pre-emergence action against DIGSA in % ([16]; dosage 80 g/ha): 100%

CCNC(=O)c1c(C(F)F)ccc(C(=O)Nc2nnnn2CC)c1C1CC1 [Example 2-305]
Post-emergence action against VIOTR in % ([17]; 5 g/ha): 80%
Post-emergence action against VIOTR in % ([17]; 20 g/ha): 90%
Pre-emergence action against VIOTR in % ([2]; dosage 20 g/ha): 90%
Pre-emergence action against VIOTR in % ([2]; dosage 80 g/ha): 100%
Post-emergence action against ECHCG in % ([3]; dosage 5 g/ha): 90%
Post-emergence action against ECHCG in % ([3]; dosage 20 g/ha): 90%
Post-emergence action against VERPE in % [18]: 90%
Pre-emergence action against VERPE in % [19]: 100%
Pre-emergence action against ABUTH (herbicidal activity) [4]: 100%
Pre-emergence action against ABUTH (herbicidal activity in percent) ([4]; dosage 20 g/ha, scored visually after 3 weeks vs untreated controls, 100% = plants have died, 0% = like control plants): 100%
Pre-emergence action against MATIN in % ([6]; dosage 20 g/ha): 100%
Pre-emergence action against MATIN in % ([6]; dosage 80 g/ha): 100%
Post-emergence action against SETVI in % ([7]; dosage 5 g/ha): 90%
Post-emergence action against SETVI in % ([7]; dosage 20 g/ha): 90%
Post-emergence action against DIGSA in % ([20]; 5 g/ha): 80%
Post-emergence action against DIGSA ([20]; 20 g/ha): 90%
Post-emergence action at 20 g/ha against AMARE in % [21]: 100%
Post-emergence action against MATIN in % ([22]; dosage 5 g/ha): 80%
Post-emergence action against MATIN in % ([22]; dosage 20 g/ha): 90%
Pre-emergence action against PHBPU in % [8]: 90%
Post-emergence action against POLCO in % [9]: 100%
Pre-emergence action against AMARE in % [10, 23]: 100%
Pre-emergence action against AMARE in % [10, 24]: 100%
Pre-emergence action against ECHCG in % ([11]; 20 g/ha): 80%
Pre-emergence action against ECHCG in % ([11]; 80 g/ha): 100%
Pre-emergence action against SETVI in % ([12]; dosage 80 g/ha): 80%
Post-emergence action against PHBPU in % [14]: 90%
Post-emergence action against ABUTH in % ([15]; dosage 5 g/ha): 80%
Post-emergence action against ABUTH in % ([15]; dosage 20 g/ha): 90%
Pre-emergence action against DIGSA in % ([16]; dosage 20 g/ha): 100%
Pre-emergence action against DIGSA in % ([16]; dosage 80 g/ha): 100%
